What was measured:
[1] = tested on: Avr/Cf9 rapidly elicited protein 75 (gene 5, Solyc11g010250.1); test: qRT-PCR expression of gene 5 in tomato leaves; format: in vivo, Tomato ecotype corbarino; design: key: relative expression normalized to a-tubulin housekeeping gene
Method: (§1) Tomato ecotype “corbarino” reported to be susceptible to TSWV infection was used in the experiment. Plants were grown in pots in a climatic chamber with a photoperiod of 16/8 hour at 25° C.
(§2) The viral strain (TSWV PV PV-0393) was utilized in the experiment. The virus was mechanically inoculated and propagated on tomato “corbarino”. The inoculum was prepared in an ice-cooled mortar grounding 1 gr of infected tomato tissue in 10 ml of Na-phosphate buffer 0.01M. The fresh prepared inoculum was stored in ice before use. Tomato plants at BBCH16 were dusted with Carborundum 600 mesh and selected leaves were rubbed with some droplets of inoculum. After 5 min. plants were sprayed with sterile water to remove the excess of inoculum and preserve the cell turgor.
(§3) Four treatments were compared: i) Mock inoculated; ii) TSWV; iii) 0.25% Laminarin; iv) 0.25% Laminarin+TSWV. In the last treatment the virus was inoculated 24 hrs after the laminarin application.
(§4) Total RNA was extracted from systemic infected tomato leaves by using the Quick-RNA Plant Kit (Zymo Research) following the manufacturer instructions. The extractions were carried out using three plants after 12 h, 24 h, 48 h, 72 h, 7 days after inoculation. Leaves were instantly frozen in liquid nitrogen after cutting to avoid any deterioration of the sample as well as any defense reaction. The RNA concentration was quantified by measuring the absorbance at 260 nm using a Nanodrop 2000 (Thermofisher). The purity of all of the RNA samples was assessed at an absorbance ratio of OD260/280 and OD260/230, while its structural integrity was checked by agarose gel electrophoresis. Only high-quality RNA with OD 260/280 and OD 260/230>2 was used for subsequent steps. Single-stranded cDNA was synthesized from 1 μg of total RNA using an iScript™ Select cDNA Synthesis Kit and random hexamers as primers (Bio-Rad, Milan, Italy), according to the manufacturer's instructions. Three biological replicates were created from the 3 leaves collected to test 15 genes. Alpha tubulin was used as reference gene.
(§5) qPCR reactions were performed with BioRad (Applied Biosystems, Foster City, CA, USA) using SYBR R Green. Each reaction was performed in 20 μl containing 10 μl of 2× Power SYBR Green PCR Master Mix (Life Technologies), 0.2-0.3 μM primers and cDNA samples diluted 1:20. Each qPCR reaction was performed in triplicate. Reactions were run using the cycling parameter described previously (Reid et al., 2006) and the qPCR data were analyzed by the Ct method (Pfaffl, 2001). In order to analyze the qPCR data, a-tubulin gene was used as housekeeping to determine the relative expression level of the other genes analyzed in this work. For the determination of qPCR efficiency of each primer pairs, a standard curve was performed using the following cDNA dilutions: 1:4, 1:16, 1:64; 1:256 and 1:1024. Every measurement was made in triplicate. The corresponding qPCR efficiencies (E) were calculated for every primer pair with the software 7300 System SDS software (Applied Biosystems, Foster City, CA, USA) according to the equation E=(10−1/slope−1)×100 (Rutledge and Stewart, 2008).
(§6) The significance of the differences between the gene expressions levels were compared by one-way ANOVA (p=0.01) and the means were separated by Tukey post-hoc test using SPSS ver.26 ([…]).

Pti6 (gene 15, U89257.1) = test: qRT-PCR expression of gene 15 in tomato leaves; format: in vivo, Tomato ecotype corbarino; design: key: relative expression normalized to a-tubulin housekeeping gene
Method: as §1, §2, §3, §4, §5, §6

[2] = Gene_15, 12 hr, treatment Laminarin
[3] = Gene_15, 12 hr, treatment Laminarin + virus
[4] = Gene_15, 24 hr, treatment Laminarin
[5] = Gene_15, 24 hr, treatment Laminarin + virus
[6] = Gene_15, 48 hr, treatment Laminarin
[7] = Gene_15, 48 hr, treatment Laminarin + virus
[8] = Gene_15, 72 hr, treatment Laminarin
[9] = Gene_15, 72 hr, treatment Laminarin + virus

laminarin
RQ1 ([1]; 12 hr, Laminarin + virus): 0.8046 | RQ2 ([1]; 12 hr, Laminarin + virus): 10.612 | RQ3 ([1]; 12 hr, Laminarin + virus): 11.537 | RQ mean ([1]; 12 hr, Laminarin + virus): 10.065 | RQ1 ([1]; 12 hr, Laminarin alone): 0.7901 | RQ2 ([1]; 12 hr, Laminarin alone): 11.285 | RQ3 ([1]; 12 hr, Laminarin alone): 0.9408 | RQ mean ([1]; 12 hr, Laminarin alone): 0.9531 | RQ1 ([1]; 24 hr, Laminarin + virus): 10.601 | RQ2 ([1]; 24 hr, Laminarin + virus): 12.023 | RQ3 ([1]; 24 hr, Laminarin + virus): 0.9700 | RQ mean ([1]; 24 hr, Laminarin + virus): 10.775 | RQ1 ([1]; 24 hr, Laminarin alone): 11.135 | RQ2 ([1]; 24 hr, Laminarin alone): 12.189 | RQ3 ([1]; 24 hr, Laminarin alone): 0.9994 | RQ mean ([1]; 24 hr, Laminarin alone): 11.106 | RQ1 ([1]; 48 hr, Laminarin + virus): 0.8610 | RQ2 ([1]; 48 hr, Laminarin + virus): 13.586 | RQ3 ([1]; 48 hr, Laminarin + virus): 10.405 | RQ mean ([1]; 48 hr, Laminarin + virus): 10.867 | RQ1 ([1]; 48 hr, Laminarin alone): 0.9204 | RQ2 ([1]; 48 hr, Laminarin alone): 12.321 | RQ3 ([1]; 48 hr, Laminarin alone): 10.531 | RQ mean ([1]; 48 hr, Laminarin alone): 10.685 | RQ1 ([1]; 72 hr, Laminarin + virus): 17.401 | RQ2 ([1]; 72 hr, Laminarin + virus): 30.624 | RQ3 ([1]; 72 hr, Laminarin + virus): 25.095 | RQ mean ([1]; 72 hr, Laminarin + virus): 24.373 | RQ1 ([1]; 72 hr, Laminarin alone): 22.196 | RQ2 ([1]; 72 hr, Laminarin alone): 23.867 | RQ3 ([1]; 72 hr, Laminarin alone): 23.473 | RQ mean ([1]; 72 hr, Laminarin alone): 23.179 | RQ1 (Pti6 (gene 15, U89257.1); [2]): 10.060 | RQ2 (Pti6 (gene 15, U89257.1); [2]): 10.254 | RQ3 (Pti6 (gene 15, U89257.1); [2]): 12.879 | RQ mean (Pti6 (gene 15, U89257.1); [2]): 11.065 | RQ1 (Pti6 (gene 15, U89257.1); [3]): 12.002 | RQ2 (Pti6 (gene 15, U89257.1); [3]): 16.131 | RQ3 (Pti6 (gene 15, U89257.1); [3]): 13.764 | RQ mean (Pti6 (gene 15, U89257.1); [3]): 13.966 | RQ1 (Pti6 (gene 15, U89257.1); [4]): 13.129 | RQ2 (Pti6 (gene 15, U89257.1); [4]): 21.363 | RQ3 (Pti6 (gene 15, U89257.1); [4]): 13.388 | RQ mean (Pti6 (gene 15, U89257.1); [4]): 15.960 | RQ1 (Pti6 (gene 15, U89257.1); [5]): 15.392 | RQ2 (Pti6 (gene 15, U89257.1); [5]): 14.812 | RQ3 (Pti6 (gene 15, U89257.1); [5]): 12.195 | RQ mean (Pti6 (gene 15, U89257.1); [5]): 14.133 | RQ1 (Pti6 (gene 15, U89257.1); [6]): 32.421 | RQ2 (Pti6 (gene 15, U89257.1); [6]): 0.8602 | RQ3 (Pti6 (gene 15, U89257.1); [6]): 19.066 | RQ mean (Pti6 (gene 15, U89257.1); [6]): 20.030 | RQ1 (Pti6 (gene 15, U89257.1); [7]): 16.304 | RQ2 (Pti6 (gene 15, U89257.1); [7]): 17.934 | RQ3 (Pti6 (gene 15, U89257.1); [7]): 18.959 | RQ mean (Pti6 (gene 15, U89257.1); [7]): 17.732 | RQ1 (Pti6 (gene 15, U89257.1); [8]): 49.281 | RQ2 (Pti6 (gene 15, U89257.1); [8]): 36.255 | RQ3 (Pti6 (gene 15, U89257.1); [8]): 43.025 | RQ mean (Pti6 (gene 15, U89257.1); [8]): 42.853 | RQ1 (Pti6 (gene 15, U89257.1); [9]): 22.660 | RQ2 (Pti6 (gene 15, U89257.1); [9]): 30.703 | RQ3 (Pti6 (gene 15, U89257.1); [9]): 44.821 | RQ mean (Pti6 (gene 15, U89257.1); [9]): 32.728
